Measured values taken from ChEMBL document CHEMBL4052776, “Discovery of 3-morpholino-imidazole[1,5-a]pyrazine BTK inhibitors for rheumatoid arthritis” (Bioorg Med Chem Lett, 2017).

How the values were obtained:
[1] = biological target: Tyrosine-protein kinase Blk (Homo sapiens, UniProt P51451); assay: Inhibition of BLK (unknown origin)
[2] = Oral bioavailability in dog at 2 mg/kg; format: ADME, organism-based, Canis lupus familiaris; conditions: in vivo
[3] = biological target: Receptor tyrosine-protein kinase erbB-4 (Homo sapiens, UniProt Q15303); assay: Inhibition of ERBB4 (unknown origin)
[4] = species: Homo sapiens; assay: Selectivity ratio of IC50 for PTK6 (unknown origin) to IC50 for BTK (unknown origin)
[5] = species: Homo sapiens; assay: Selectivity ratio of IC50 for TEC (unknown origin) to IC50 for BTK (unknown origin)
[6] = Half life in dog at 2 mg/kg; format: ADME, organism-based, Canis lupus familiaris; conditions: in vivo
[7] = species: Homo sapiens; assay: Selectivity ratio of IC50 for FGR (unknown origin) to IC50 for BTK (unknown origin)
[8] = biological target: Protein-tyrosine kinase 6 (Homo sapiens, UniProt Q13882); assay: Inhibition of PTK6 (unknown origin)
Chain of Protein-tyrosine kinase 6 (Q13882 whole entry): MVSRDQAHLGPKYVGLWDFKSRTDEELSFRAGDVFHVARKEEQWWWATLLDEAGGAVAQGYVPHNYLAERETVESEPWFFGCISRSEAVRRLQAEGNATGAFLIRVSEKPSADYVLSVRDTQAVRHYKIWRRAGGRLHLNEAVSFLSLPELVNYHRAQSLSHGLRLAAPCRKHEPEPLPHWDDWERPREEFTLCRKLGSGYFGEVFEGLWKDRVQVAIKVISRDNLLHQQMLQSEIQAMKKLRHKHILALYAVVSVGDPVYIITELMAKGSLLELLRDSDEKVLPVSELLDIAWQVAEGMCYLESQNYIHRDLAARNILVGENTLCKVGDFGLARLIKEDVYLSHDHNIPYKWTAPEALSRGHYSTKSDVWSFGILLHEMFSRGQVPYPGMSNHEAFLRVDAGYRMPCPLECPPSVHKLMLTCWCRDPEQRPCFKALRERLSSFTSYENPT

[9] = Oral bioavailability in rat at 10 mg/kg; format: ADME, organism-based; conditions: in vivo
[10] = species: Homo sapiens; assay: Selectivity ratio of IC50 for YES1 (unknown origin) to IC50 for BTK (unknown origin)
[11] = Total clearance in dog plasma at 2 mg/kg; format: ADME, organism-based, Canis lupus familiaris
[12] = biological target: Tyrosine-protein kinase Srms (Homo sapiens, UniProt Q9H3Y6); assay: Inhibition of SRMS (unknown origin)
Chain of Tyrosine-protein kinase Srms (Q9H3Y6 whole entry): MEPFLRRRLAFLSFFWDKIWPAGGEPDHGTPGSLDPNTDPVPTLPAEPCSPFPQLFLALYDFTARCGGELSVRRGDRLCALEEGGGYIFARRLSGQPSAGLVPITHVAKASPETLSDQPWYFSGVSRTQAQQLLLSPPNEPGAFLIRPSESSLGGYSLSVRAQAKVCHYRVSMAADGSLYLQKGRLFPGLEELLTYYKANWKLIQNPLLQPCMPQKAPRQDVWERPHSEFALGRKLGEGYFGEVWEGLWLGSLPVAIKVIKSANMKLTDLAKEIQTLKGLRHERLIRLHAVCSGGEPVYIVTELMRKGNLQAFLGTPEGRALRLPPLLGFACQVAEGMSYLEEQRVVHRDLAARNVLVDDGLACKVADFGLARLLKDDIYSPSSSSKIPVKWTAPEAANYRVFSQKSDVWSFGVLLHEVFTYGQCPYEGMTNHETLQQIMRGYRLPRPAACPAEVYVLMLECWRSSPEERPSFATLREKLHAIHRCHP

[13] = biological target: Voltage-gated inwardly rectifying potassium channel KCNH2 (Homo sapiens, UniProt Q12809); assay: Inhibition of human ERG by [35S]-MK499 displacement or iKr channel assay
Chain of Voltage-gated inwardly rectifying potassium channel KCNH2 (Q12809 whole entry): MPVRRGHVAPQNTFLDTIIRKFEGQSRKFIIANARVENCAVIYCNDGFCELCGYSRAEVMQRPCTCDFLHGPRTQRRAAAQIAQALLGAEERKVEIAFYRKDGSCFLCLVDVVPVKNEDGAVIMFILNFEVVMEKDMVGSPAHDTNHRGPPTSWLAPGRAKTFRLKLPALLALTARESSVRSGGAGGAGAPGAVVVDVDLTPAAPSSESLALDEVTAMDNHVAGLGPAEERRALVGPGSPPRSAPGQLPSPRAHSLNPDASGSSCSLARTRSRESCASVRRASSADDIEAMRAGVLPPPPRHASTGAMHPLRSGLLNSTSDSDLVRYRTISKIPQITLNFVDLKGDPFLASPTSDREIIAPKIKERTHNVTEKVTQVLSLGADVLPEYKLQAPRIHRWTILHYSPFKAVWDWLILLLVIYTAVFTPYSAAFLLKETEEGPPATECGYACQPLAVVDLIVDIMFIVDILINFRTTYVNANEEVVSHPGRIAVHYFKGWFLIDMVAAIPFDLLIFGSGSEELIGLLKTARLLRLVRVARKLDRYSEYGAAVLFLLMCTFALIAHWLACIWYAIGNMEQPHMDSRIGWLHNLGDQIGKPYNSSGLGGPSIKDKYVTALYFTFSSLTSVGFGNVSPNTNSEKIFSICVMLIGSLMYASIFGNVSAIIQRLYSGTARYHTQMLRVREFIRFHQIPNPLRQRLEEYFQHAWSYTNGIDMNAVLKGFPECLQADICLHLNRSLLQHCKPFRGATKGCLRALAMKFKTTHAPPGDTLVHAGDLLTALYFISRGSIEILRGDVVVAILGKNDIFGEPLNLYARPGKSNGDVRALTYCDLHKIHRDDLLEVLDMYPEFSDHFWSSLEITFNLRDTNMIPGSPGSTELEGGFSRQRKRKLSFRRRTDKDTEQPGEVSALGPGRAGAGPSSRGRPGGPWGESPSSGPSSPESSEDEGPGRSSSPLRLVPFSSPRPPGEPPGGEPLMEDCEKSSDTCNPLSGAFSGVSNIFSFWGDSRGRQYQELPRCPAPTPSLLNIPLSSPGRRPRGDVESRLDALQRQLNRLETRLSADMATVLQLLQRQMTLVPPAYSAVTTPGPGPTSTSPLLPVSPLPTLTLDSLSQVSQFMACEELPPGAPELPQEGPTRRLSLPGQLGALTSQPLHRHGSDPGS

[14] = biological target: Tyrosine-protein kinase CSK (Homo sapiens, UniProt P41240); assay: Inhibition of CSK (unknown origin)
Chain of Tyrosine-protein kinase CSK (P41240 whole entry): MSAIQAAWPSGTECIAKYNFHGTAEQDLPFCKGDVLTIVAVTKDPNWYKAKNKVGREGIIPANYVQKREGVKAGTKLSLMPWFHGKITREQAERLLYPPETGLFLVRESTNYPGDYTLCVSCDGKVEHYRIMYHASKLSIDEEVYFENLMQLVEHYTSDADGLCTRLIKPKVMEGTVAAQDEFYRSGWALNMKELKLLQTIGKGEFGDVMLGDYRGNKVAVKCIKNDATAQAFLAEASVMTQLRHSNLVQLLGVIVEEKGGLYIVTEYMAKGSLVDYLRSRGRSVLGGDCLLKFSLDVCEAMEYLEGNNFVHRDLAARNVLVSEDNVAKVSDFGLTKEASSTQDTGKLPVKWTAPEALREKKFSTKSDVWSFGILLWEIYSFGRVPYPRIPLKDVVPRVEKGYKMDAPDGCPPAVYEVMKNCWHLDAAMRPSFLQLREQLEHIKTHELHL

[15] = Half life in rat at 10 mg/kg; format: ADME, organism-based; conditions: in vivo
[16] = species: Homo sapiens; assay: Selectivity ratio of IC50 for LCK (unknown origin) to IC50 for BTK (unknown origin)
[17] = biological target: Tyrosine-protein kinase Yes (Homo sapiens, UniProt P07947); assay: Inhibition of YES1 (unknown origin)
Chain of Tyrosine-protein kinase Yes (P07947 whole entry): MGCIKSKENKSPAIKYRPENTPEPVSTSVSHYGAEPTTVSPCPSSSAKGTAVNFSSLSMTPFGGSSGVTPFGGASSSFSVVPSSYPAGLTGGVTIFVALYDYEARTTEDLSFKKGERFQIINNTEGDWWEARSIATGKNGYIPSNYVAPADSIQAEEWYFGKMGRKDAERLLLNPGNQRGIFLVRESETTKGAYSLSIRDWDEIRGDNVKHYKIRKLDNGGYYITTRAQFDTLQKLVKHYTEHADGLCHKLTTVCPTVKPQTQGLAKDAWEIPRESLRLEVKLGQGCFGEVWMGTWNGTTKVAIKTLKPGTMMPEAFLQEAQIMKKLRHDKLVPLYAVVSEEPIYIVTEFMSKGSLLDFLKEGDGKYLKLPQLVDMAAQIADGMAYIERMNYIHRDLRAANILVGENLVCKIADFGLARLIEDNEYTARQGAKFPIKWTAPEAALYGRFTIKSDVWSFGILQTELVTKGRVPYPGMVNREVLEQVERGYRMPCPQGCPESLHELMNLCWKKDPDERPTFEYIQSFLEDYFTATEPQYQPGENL

[18] = species: Homo sapiens; assay: Selectivity ratio of IC50 for BMX (unknown origin) to IC50 for BTK (unknown origin)
[19] = species: Homo sapiens; assay: Selectivity ratio of IC50 for FRK (unknown origin) to IC50 for BTK (unknown origin)
[20] = species: Homo sapiens; assay: Selectivity ratio of IC50 for ERBB4 (unknown origin) to IC50 for BTK (unknown origin)
[21] = species: Homo sapiens; assay: Selectivity ratio of IC50 for SRMS (unknown origin) to IC50 for BTK (unknown origin)
[22] = biological target: T1, Tyrosine-protein kinase BTK (Homo sapiens, UniProt Q06187); assay: Inhibition of recombinant full-length His6-tagged BTK (unknown origin) expressed in baculovirus infected Sf9 cells using biotinylated A5 peptide as substrate preincubated for 60 mins followed by substrate addition measured after 120 mins by LANCE TR-FRET assay
T1 sequence (Q06187 whole entry): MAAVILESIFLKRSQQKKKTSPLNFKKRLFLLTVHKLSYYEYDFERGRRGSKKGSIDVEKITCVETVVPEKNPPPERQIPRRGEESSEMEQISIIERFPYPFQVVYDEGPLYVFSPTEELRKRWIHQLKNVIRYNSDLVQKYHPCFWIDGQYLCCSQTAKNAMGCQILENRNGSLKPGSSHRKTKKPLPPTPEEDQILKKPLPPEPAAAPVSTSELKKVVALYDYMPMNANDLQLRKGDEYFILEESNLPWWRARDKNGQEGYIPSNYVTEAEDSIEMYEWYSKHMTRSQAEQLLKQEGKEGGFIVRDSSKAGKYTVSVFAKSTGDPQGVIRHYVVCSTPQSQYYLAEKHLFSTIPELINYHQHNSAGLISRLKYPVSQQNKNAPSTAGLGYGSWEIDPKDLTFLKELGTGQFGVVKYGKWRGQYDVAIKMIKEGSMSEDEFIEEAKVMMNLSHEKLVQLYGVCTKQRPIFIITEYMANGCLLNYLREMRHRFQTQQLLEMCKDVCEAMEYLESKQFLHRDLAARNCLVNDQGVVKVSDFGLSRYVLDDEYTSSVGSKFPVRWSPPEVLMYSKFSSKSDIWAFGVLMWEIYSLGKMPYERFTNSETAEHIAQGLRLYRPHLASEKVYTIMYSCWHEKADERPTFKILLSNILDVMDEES

[23] = species: Homo sapiens; assay: Selectivity ratio of IC50 for TXK (unknown origin) to IC50 for BTK (unknown origin)
[24] = species: Homo sapiens; assay: Selectivity ratio of IC50 for SRC (unknown origin) to IC50 for BTK (unknown origin)
[25] = biological target: T1, Tyrosine-protein kinase BTK; assay: Inhibition of BTK in human PBMC assessed as reduction in anti-IgM-induced MIP1beta
[26] = biological target: T2, Tyrosine-protein kinase Tec (Homo sapiens, UniProt P42680); assay: Inhibition of TEC (unknown origin)
T2 sequence (P42680 whole entry): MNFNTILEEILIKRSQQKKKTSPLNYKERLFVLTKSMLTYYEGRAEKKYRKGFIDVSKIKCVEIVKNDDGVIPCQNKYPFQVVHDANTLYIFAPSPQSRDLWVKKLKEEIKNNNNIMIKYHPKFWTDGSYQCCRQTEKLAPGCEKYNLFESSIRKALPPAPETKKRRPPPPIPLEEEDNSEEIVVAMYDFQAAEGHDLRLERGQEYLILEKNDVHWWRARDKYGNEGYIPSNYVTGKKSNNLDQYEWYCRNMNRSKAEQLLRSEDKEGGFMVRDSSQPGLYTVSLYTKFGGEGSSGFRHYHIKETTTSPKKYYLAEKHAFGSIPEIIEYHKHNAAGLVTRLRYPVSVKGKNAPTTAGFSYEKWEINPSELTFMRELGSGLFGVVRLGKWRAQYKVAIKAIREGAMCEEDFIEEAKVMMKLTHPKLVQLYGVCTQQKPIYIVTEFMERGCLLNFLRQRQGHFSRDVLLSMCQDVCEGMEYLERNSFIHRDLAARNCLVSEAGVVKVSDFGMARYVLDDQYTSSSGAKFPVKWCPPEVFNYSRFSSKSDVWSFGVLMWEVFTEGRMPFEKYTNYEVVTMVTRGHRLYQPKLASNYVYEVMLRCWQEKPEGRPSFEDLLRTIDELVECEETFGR

[27] = biological target: Tyrosine-protein kinase Fyn (Homo sapiens, UniProt P06241); assay: Inhibition of FYN (unknown origin)
Chain of Tyrosine-protein kinase Fyn (P06241 whole entry): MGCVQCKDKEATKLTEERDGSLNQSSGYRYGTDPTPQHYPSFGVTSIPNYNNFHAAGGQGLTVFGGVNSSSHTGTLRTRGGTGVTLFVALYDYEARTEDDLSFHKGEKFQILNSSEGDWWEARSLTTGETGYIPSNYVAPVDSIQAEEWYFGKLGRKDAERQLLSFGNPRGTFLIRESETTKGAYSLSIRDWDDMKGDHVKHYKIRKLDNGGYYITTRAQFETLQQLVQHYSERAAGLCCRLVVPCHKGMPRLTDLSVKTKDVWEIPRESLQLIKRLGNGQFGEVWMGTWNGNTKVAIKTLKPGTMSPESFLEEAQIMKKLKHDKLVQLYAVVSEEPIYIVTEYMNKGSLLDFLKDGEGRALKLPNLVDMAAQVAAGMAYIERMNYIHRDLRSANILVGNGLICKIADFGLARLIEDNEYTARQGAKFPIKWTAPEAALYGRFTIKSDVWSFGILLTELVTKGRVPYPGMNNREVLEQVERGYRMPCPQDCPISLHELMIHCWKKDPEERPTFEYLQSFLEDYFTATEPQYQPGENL

[28] = biological target: Tyrosine-protein kinase Lck (Homo sapiens, UniProt P06239); assay: Inhibition of LCK (unknown origin)
[29] = Total clearance in rat plasma at 10 mg/kg; format: ADME, organism-based
[30] = biological target: T3, Cytoplasmic tyrosine-protein kinase BMX (Homo sapiens, UniProt P51813); assay: Inhibition of BMX (unknown origin)
T3 sequence (P51813 whole entry): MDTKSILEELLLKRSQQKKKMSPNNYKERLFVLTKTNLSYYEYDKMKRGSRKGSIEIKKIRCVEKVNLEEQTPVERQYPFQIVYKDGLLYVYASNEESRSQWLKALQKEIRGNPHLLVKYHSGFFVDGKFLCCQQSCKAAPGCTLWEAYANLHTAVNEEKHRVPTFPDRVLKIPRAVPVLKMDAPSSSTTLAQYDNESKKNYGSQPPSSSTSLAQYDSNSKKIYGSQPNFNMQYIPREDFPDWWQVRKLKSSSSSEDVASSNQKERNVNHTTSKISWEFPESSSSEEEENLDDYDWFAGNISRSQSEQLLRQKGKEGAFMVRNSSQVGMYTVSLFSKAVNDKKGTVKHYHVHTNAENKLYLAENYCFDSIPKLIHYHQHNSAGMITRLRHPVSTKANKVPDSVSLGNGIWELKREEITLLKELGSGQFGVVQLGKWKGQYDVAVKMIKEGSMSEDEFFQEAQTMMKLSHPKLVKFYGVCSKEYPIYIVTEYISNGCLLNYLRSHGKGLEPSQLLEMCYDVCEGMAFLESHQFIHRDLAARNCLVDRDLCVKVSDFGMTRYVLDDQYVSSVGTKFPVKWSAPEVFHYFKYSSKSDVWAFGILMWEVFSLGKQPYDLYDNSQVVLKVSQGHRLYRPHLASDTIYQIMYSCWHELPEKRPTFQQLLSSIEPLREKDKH

[31] = species: Homo sapiens; assay: Selectivity ratio of IC50 for FYN (unknown origin) to IC50 for BTK (unknown origin)
[32] = biological target: Tyrosine-protein kinase Fgr (Homo sapiens, UniProt P09769); assay: Inhibition of FGR (unknown origin)
Chain of Tyrosine-protein kinase Fgr (P09769 whole entry): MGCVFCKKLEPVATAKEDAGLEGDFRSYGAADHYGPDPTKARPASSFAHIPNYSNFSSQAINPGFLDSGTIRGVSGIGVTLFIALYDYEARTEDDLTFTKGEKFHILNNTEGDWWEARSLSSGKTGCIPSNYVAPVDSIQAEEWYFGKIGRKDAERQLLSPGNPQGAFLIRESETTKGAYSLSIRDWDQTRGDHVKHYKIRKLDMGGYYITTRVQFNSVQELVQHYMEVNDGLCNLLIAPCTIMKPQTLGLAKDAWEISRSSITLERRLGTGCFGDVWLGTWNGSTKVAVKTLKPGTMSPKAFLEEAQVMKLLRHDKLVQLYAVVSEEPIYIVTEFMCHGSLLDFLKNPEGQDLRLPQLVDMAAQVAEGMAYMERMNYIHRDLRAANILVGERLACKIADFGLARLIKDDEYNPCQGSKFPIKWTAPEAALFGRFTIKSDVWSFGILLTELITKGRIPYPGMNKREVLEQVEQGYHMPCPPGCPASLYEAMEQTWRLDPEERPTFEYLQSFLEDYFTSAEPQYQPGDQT

[33] = species: Homo sapiens; assay: Selectivity ratio of IC50 for BLK (unknown origin) to IC50 for BTK (unknown origin)

## CC(C)C(=O)N1CCO[C@@H](c2nc(-c3ccc(C(=O)Nc4cc(C(F)(F)F)ccn4)cc3F)c3c(N)nccn23)C1
[1]
  IC50: 280 nM
[2]
  bioavailability: 89%
[3]
  IC50: 514 nM
[4]
  Ratio IC50: 393
[5]
  Ratio IC50: 973
[6]
  half-life: 3.9 h
[7]
  Ratio IC50: 610
[8]
  IC50: 173 nM
[9]
  bioavailability: 87%
[10]
  Ratio IC50: 605
[11]
  clearance: 4.8 mL/min/kg
[12]
  IC50: 103 nM
[13]
  IC50: 15000 nM
[14]
  IC50: 2150 nM
[15]
  half-life: 2.3 h
[16]
  Ratio IC50: 227
[17]
  IC50: 266 nM
[18]
  Ratio IC50: 1600
[19]
  Ratio IC50: 1600
[20]
  Ratio IC50: 1170
[21]
  Ratio IC50: 234
[22]
  IC50: 0.4 to 0.44 nM
[23]
  Ratio IC50: 1060
[24]
  Ratio IC50: 1160
[25]
  IC50: 26 nM
[26]
  IC50: 428 nM
[27]
  IC50: 1900 nM
[28]
  IC50: 100 nM
[29]
  clearance: 1.4 mL/min/kg
[30]
  IC50: 703 nM
[31]
  Ratio IC50: 4330
[32]
  IC50: 268 nM
[33]
  Ratio IC50: 636
